Measurements published in patent publication US20060148030A1, “Nuclear receptor err y 3” (FUJISAWA PHARMACEUTICAL CO., LTD, priority 2002, published 2006).
One block for each molecule: values may come before it.

Target: T1, GR (Homo sapiens, UniProt P04150)
T1 construct: expressed in transfected cells; host or cells: CV-1 (African green monkey kidney)
T1 sequence (P04150 1-777): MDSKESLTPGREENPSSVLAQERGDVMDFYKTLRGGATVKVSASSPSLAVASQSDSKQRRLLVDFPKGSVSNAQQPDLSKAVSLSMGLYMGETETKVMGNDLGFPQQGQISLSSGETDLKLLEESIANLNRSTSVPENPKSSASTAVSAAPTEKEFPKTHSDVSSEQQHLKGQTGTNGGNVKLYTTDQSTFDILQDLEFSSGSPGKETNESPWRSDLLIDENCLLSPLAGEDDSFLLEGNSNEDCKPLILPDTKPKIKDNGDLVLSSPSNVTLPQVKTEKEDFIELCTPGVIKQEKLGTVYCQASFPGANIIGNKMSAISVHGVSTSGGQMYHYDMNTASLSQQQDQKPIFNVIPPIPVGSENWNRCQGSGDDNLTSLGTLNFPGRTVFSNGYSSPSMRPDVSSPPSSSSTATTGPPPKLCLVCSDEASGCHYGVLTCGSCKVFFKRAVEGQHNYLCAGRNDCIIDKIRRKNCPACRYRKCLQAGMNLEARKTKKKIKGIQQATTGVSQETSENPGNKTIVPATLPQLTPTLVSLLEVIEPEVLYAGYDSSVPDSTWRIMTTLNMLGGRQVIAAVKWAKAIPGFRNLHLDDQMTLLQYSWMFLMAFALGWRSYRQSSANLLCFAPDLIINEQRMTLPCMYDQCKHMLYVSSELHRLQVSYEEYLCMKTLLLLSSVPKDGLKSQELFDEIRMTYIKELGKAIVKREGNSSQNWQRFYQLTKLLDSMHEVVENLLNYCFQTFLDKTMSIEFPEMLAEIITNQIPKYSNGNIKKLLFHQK
Assay: Reporter gene assay, ERRγ3 coexisted with GR, pGRE-luc in CV-1 cells
Type: cell-based
Conditions: 10^−5 M dexamethasone
Description: Transfection was performed as follows: CV-1 cells were resuspended in DMEM supplemented with 10% fetal bovine serum, 2000 U/l of penicillin G, and 100 mg/l of streptomycin to a concentration of 2×10^5 cells/2.5 ml. This was then seeded to a 6-well plate at 2.5 ml per well, and incubated for 18-24 hours in a CO2 incubator at 37° C. and 5% CO2. 1 μg of each of the expression plasmids for the transcription factors, the luciferase reporter plasmid, and another luciferase reporter plasmid used for normalization of the measured values (pRL-TK), were dissolved in Opti-MEM (Gibco BRL), to a total of 150 μl. 7 μl of the transfection reagent LipofectAMINE 2000 (Gibco BRL) was diluted in 143 μl of Opti-MEM, and this was added to the mixture drop by drop while stirring. The mixture was incubated for 20 minutes. […] Luciferase activity was measured using the Dual-Luciferase™ Reporter Assay System (Promega). […] The protocol for measurement was as follows: 50 μl of Luciferase Assay Reagent II was added to each well, stirred for 0.3 seconds, and measured for one second. 50 μl of Stop&Glo™ Reagent was then added, stirred for 0.3 seconds, and measured for one second. The measured values for firefly luciferase activity were corrected by dividing by the value for the Renilla luciferase activity, the internal control. Average values and standard errors were calculated from triplicate samples. […]

effect of 4-hydroxytamoxifen on the inhibitory function of ERRγ3 on GR (10^−5 M 4-hydroxytamoxifen, FIG. 25B): reduced ERRγ3's inhibitory function
Molecule: 4-hydroxytamoxifen [reference compound]

B1: ERRγ3: novel ERRγ isoform, nuclear receptor protein of 396 amino acids (SEQ ID NO: 2) lacking part of the DNA binding domain (protein, listed as Homo sapiens)
chain: MSNKDRHIDSSCSSFIKTEPSSPASLTDSVNHHSPGGSSDASGSYSSTMNGHQNGLDSPPLYPSAPILGGSGPVRKLYDDCSSTIVEDPQTKCEYMLNSMPKRLCLVCGDIASGYHYGVASCEACKAFFKRTIQGVRLDRVRGGRQKYKRRIDAENSPYLNPQLAQPAKKPYNKIVSHLLVAEPEKIYAMPDPTVPDSDIKALTTLCDLADRELVVIIGWAKHIPGFSTLSLADQMSLLQSAWMEILILGVVYRSLSFEDELVYADDYIMDEDQSKLAGLLDLNNAILQLVKKYKSMKLEKEEFVTLKAIALANSDSMHIEDVEAVQKLQDVLHEALQDYEAGQHMEDPRRAGKMLMTLPLLRQTSTKAVQHFYNIKLEGKVPMHKLFLEMLEAKV
effect of ERRγ3 on the transcriptional stimulation activity of GR (FIG. 25): inhibited GR's transcriptional stimulation activity
